Reference: US20050107386A1, “Methods of treating diseases and disorders by targeting multiple kinases” (priority 2003, published 2005)

How the values were obtained:
Type in all cases: biochemical
CDK2/cyclinA(h) = CDK2/cyclinA(h) (Homo sapiens, UniProt P24941); assay: CDK2/cyclinA(h) kinase assay; conditions: for Inhibitory activity (% of control), CDK2/cyclinA(h): 3 μM, percent of control kinase activity
Method: (§1) Six compounds (presumptive single agents) were tested against a panel of 50 kinases. The results are presented in Table 2; numbers for each kinase indicate the percent of control kinase activity in the presence of a 3μM concentration of the indicated agent.
(§2) Agents that target two or more different kinases are useful in the methods of the invention as described elsewhere herein. Such compounds may be identified, and their effect on certain kinases may be identified, using the assays briefly described below in Examples 4-83. Each of these assays was carried out as described in Davies et al., Biochem. J., 351:95-105 (2000). All assays were carried out at 10 μM ATP unless otherwise noted.
(§3) In a final reaction volume of 25 μl, CDK2/cyclinA (h) (5-10 mU) is incubated with 8 mM MOPS pH 7.0, 0.2 mM EDTA, 0.1 mg/ml histone H1, 10 mM MgAcetate and [γ-^33p-ATP] (specific activity approx. 500 cpm/pmol, concentration as required). The reaction is initiated by the addition of Mg^2+ [γ-^33P-ATP]. After incubation for 40 minutes at room temperature, the reaction is stopped by the addition of 5 μl of a 3% phosphoric acid solution. 10 μl of the reaction is then spotted onto a P30 filtermat and washed three times for 5 minutes in 75 mM phosphoric acid and once in methanol prior to drying and scintillation counting.

MEK1(h) = MEK1(h) (Homo sapiens, UniProt Q02750); assay: MEK1(h) kinase assay; conditions: for Inhibitory activity (% of control), MEK1(h): 3 μM, percent of control kinase activity
Method: as §1, §2
The reaction is initiated by the addition of the MgATP. After incubation for 40 minutes at room temperature, 5 μl of this incubation mix is used to initiate a MAPK2 (m) assay, which is described on […].

PDGFRβ(h) = PDGFRβ(h) (Homo sapiens, UniProt P09619); assay: PDGFRβ(h) kinase assay; conditions: 3 μM; percent of control kinase activity
Method: as §1, §2
as §3, with “PDGFRβ” for “CDK2/cyclinA”, “poly(Glu, Tyr) 4:1, 10 mM MnCl2,” for “histone H1,”, “[γ-^33P-ATP]” for “[γ-^33p-ATP]”, “Filtermat A” for “P30 filtermat”

PKCμ(h) = target: T1, PKCμ(h) (Homo sapiens, UniProt Q15139); assay: PKCμ(h) kinase assay; conditions: 3 μM; percent of control kinase activity
T1 sequence (Q15139 1-912): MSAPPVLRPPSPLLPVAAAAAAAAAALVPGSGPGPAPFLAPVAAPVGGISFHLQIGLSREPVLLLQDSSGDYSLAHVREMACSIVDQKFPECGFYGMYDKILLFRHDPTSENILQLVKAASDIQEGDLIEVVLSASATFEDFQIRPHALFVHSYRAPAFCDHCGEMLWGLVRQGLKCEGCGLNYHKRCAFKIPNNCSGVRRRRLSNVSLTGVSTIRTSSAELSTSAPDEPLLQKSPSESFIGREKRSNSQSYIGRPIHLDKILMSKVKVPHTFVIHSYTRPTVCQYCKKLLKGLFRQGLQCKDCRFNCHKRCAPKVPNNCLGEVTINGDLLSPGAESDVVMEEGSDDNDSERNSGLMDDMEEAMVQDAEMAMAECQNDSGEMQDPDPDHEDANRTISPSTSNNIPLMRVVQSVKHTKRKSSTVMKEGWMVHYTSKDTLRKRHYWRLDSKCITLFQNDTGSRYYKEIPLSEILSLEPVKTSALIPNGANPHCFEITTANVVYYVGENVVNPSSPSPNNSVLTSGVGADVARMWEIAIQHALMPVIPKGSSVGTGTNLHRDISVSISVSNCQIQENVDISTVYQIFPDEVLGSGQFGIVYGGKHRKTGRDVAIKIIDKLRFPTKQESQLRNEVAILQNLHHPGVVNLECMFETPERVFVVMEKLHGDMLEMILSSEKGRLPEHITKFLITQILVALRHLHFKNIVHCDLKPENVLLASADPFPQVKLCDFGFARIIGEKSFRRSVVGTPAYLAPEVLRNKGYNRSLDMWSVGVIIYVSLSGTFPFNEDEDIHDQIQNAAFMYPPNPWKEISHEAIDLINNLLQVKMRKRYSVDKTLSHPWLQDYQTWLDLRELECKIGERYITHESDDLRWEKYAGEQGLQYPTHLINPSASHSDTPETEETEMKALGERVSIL
Method: as §1, §2

SGK(h) = target: T2, SGK(h) (Homo sapiens, UniProt O00141); assay: SGK(h) kinase assay; conditions: 3 μM; percent of control kinase activity
T2 sequence (O00141 1-431): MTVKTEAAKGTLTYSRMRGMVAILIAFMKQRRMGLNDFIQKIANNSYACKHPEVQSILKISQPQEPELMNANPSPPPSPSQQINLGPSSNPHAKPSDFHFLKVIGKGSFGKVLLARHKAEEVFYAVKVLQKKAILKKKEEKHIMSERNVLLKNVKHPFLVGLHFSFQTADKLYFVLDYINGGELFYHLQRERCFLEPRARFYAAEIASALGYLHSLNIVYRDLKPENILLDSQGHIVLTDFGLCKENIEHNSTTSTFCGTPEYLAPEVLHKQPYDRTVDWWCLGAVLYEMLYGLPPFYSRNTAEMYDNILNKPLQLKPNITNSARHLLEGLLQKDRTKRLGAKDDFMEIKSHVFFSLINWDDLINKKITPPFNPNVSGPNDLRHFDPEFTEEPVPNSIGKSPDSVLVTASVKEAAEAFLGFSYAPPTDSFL
Method: as §1, §2
as §3, with “SGK(h)” for “CDK2/cyclinA (h)”, “30 μM […] (SEQ ID NO:2),” for “0.1 mg/ml histone H1,”, “[γ-^33P-ATP]” for “[γ-^33p-ATP]”, “Mg^2+[γ-^33P-ATP].” for “Mg^2+ [γ-^33P-ATP].”

Sequence of MEK1(h) (Q02750 whole entry): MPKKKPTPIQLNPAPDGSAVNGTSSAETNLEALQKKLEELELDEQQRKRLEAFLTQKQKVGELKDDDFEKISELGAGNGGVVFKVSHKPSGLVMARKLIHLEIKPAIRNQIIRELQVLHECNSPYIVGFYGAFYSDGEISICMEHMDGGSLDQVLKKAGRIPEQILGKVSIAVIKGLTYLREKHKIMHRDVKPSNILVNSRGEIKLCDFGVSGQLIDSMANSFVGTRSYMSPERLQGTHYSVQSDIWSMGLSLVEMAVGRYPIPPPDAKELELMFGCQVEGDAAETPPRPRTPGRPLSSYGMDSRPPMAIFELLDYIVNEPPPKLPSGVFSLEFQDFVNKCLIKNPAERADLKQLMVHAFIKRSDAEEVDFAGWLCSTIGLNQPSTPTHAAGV
Sequence of PDGFRβ(h) (P09619 33-1106): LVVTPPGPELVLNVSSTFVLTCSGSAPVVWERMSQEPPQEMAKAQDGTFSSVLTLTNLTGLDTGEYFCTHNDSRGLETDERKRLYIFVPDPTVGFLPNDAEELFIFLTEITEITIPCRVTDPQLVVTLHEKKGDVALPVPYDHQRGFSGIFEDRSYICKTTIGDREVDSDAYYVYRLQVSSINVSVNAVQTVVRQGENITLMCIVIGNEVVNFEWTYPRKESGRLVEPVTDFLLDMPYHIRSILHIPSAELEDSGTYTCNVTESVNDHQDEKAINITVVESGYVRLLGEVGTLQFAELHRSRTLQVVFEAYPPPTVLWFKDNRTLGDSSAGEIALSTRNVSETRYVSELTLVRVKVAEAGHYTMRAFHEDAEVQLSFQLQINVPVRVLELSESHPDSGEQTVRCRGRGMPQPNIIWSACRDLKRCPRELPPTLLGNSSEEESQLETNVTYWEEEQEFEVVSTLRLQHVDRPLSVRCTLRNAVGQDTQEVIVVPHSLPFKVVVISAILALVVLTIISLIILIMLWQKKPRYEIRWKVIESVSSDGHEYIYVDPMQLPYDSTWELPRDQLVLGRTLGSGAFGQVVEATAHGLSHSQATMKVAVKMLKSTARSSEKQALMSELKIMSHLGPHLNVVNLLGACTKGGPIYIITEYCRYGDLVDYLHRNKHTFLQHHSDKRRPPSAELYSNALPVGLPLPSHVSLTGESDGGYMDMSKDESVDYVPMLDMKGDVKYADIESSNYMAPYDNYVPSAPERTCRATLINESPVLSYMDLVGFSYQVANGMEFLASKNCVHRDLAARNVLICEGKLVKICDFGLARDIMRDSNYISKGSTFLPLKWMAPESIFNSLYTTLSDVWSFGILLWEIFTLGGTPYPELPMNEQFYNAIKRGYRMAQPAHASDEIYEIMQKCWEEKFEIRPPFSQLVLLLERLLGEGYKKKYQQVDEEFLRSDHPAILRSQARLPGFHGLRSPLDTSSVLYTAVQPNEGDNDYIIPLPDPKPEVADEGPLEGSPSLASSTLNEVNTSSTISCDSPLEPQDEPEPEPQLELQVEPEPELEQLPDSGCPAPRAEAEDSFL

Row | Inhibitory activity (% of control), CDK2/cyclinA(h) (CDK2/cyclinA(h)) | Inhibitory activity (% of control), MEK1(h) (MEK1(h)) | Inhibitory activity (% of control), PDGFRβ(h) (PDGFRβ(h)) | Inhibitory activity (% of control), PKCμ(h) (PKCμ(h)) | Inhibitory activity (% of control), SGK(h) (SGK(h)) | inhibitory activity against CDK2, in words (CDK2/cyclinA(h); summary of Table 2) | inhibitory activity against MEK1, in words (MEK1(h); summary of Table 2) | Structure (SMILES)
1 | 2 % of control | 11 % of control | 91 % of control | 34 % of control | 33 % of control | good inhibitory activity | good inhibitory activity | CC(C)(C)Cc1nc(-c2ccc3[nH]nc(-c4ccc5cc(OCc6ccccn6)ccc5c4)c3c2)n[nH]1 [CC004, 5-[5-(2,2-Dimethyl-propyl)-1H-[1,2,4]triazol-3-yl]-3-[6-(pyridine-2-ylmethoxy)-naphthalen-2-yl]-1H-indazole]
2 | 2 % of control | 2 % of control | 20 % of control | 2 % of control | 4 % of control | – | – | CCN1CCC[C@H]1COc1ccc2cc(-c3n[nH]c4ccc(-c5nc(CC(C)(C)C)n[nH]5)cc34)ccc2c1 [CC005, 2-[((2s)-1-ethylpyrrolidin-2-yl)methoxy]-6-{5-[3-(2,2-Dimethylpropyl)(1H-1,2,4,-triazol-5-yl)](1H-indazol-3-yl)}naphthalene]

Row | Structure (SMILES) | Inhibitory activity (% of control), CDK2/cyclinA(h) (CDK2/cyclinA(h)) | Inhibitory activity (% of control), MEK1(h) (MEK1(h)) | Inhibitory activity (% of control), PDGFRβ(h) (PDGFRβ(h)) | Inhibitory activity (% of control), PKCμ(h) (PKCμ(h)) | Inhibitory activity (% of control), SGK(h) (SGK(h)) | inhibitory activity against CDK2, in words (CDK2/cyclinA(h); summary of Table 2) | inhibitory activity against MEK1, in words (MEK1(h); summary of Table 2)
3 | COc1ccc2cc(-c3n[nH]c4ccc(-c5n[nH]c(CN6CCOCC6)n5)cc34)ccc2c1 [CC001, 3-(6-Methoxynaphthalen-2-yl)-5-(5-Morpholin-4-Ylmethyl-1H-[1,2,4]Triazol-3-yl)-1H-Indazole] | 4 % of control | 4 % of control | 94 % of control | 6 % of control | 56 % of control | – | –
